Source: ChEMBL document CHEMBL1201862, “PubChem BioAssay data set” (2004)
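Assay format: 96-well plates, 48-hour exposure. GI50 is the concentration that inhibits growth by half.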 Active and inactive are the calls of the source. Rule as the data show it: active = GI50 up to about 1.1 µM and inactive = higher.

What was measured:
Test in all cases: inhibition of tumour cell growth, NCI panel, 48 h
[1] = system: 786-0
[2] = system: A498
[3] = system: A549
[4] = system: ACHN
[5] = system: BT-549
[6] = system: CAKI-1
[7] = system: CCRF-CEM
[8] = system: COLO 205
[9] = system: EKVX
[10] = system: HCC 2998
[11] = system: HCT-116
[12] = system: HCT-15
[13] = system: HL-60
[14] = system: HOP-62
[15] = system: HOP-92
[16] = system: HT-29
[17] = system: Hs-578T
[18] = system: IGROV-1
[19] = system: K562
[20] = system: KM12
[21] = system: LOX IMVI
[22] = system: M14
[23] = system: MCF7
[24] = system: MDA-MB-231
[25] = system: MDA-MB-435
[26] = system: MOLT-4
[27] = system: Malme-3M
[28] = system: NCI-H226
[29] = system: NCI-H460
[30] = system: NCI-H522
[31] = system: NCI/ADR-RES
[32] = system: OVCAR-4
[33] = system: OVCAR-5
[34] = system: OVCAR-8
[35] = system: PC-3
[36] = system: RPMI-8226
[37] = system: RXF 393
[38] = system: SF-268
[39] = system: SF-295
[40] = system: SF-539
[41] = system: SK-MEL-28
[42] = system: SK-MEL-2
[43] = system: SK-MEL-5
[44] = system: SK-OV-3
[45] = system: SN12C
[46] = system: SNB-19
[47] = system: SNB-75
[48] = system: SW-620
[49] = system: TK-10
[50] = system: U-251
[51] = system: UACC-257
[52] = system: UACC-62

## N#Cc1c(-c2ccc([N+](=O)[O-])cc2)c(C#N)c(=O)n(NS(=O)(=O)c2ccccc2)c1-c1ccccc1
[1]
  GI50: > 100 µM (inactive)
[2]
  GI50: > 100 µM (inactive)
[3]
  GI50: > 100 µM (inactive)
[4]
  GI50: > 100 µM (inactive)
[5]
  GI50: > 100 µM (inactive)
[6]
  GI50: > 100 µM (inactive)
[7]
  GI50: > 100 µM (inactive)
[8]
  GI50: > 100 µM (inactive)
[9]
  GI50: > 100 µM (inactive)
[10]
  GI50: > 100 µM (inactive)
[11]
  GI50: > 100 µM (inactive)
[12]
  GI50: > 100 µM
[13]
  GI50: > 100 µM (inactive)
[14]
  GI50: > 100 µM (inactive)
[15]
  GI50: > 100 µM (inactive)
[16]
  GI50: > 100 µM (inactive)
[17]
  GI50: > 100 µM (inactive)
[18]
  GI50: > 100 µM (inactive)
[19]
  GI50: > 100 µM (inactive)
[20]
  GI50: > 100 µM (inactive)
[21]
  GI50: > 100 µM (inactive)
[22]
  GI50: > 100 µM (inactive)
[23]
  GI50: > 100 µM (inactive)
[24]
  GI50: > 100 µM (inactive)
[25]
  GI50: > 100 µM (inactive)
[26]
  GI50: > 100 µM (inactive)
[27]
  GI50: > 100 µM (inactive)
[28]
  GI50: > 100 µM (inactive)
[29]
  GI50: > 100 µM (inactive)
[30]
  GI50: > 100 µM (inactive)
[31]
  GI50: > 100 µM (inactive)
[32]
  GI50: > 100 µM (inactive)
[33]
  GI50: > 100 µM (inactive)
[34]
  GI50: > 100 µM (inactive)
[35]
  GI50: > 100 µM (inactive)
[36]
  GI50: > 100 µM (inactive)
[37]
  GI50: > 100 µM (inactive)
[38]
  GI50: > 100 µM (inactive)
[39]
  GI50: > 100 µM (inactive)
[40]
  GI50: > 100 µM (inactive)
[41]
  GI50: > 100 µM (inactive)
[42]
  GI50: > 100 µM (inactive)
[43]
  GI50: > 100 µM (inactive)
[44]
  GI50: > 100 µM (inactive)
[45]
  GI50: > 100 µM (inactive)
[46]
  GI50: > 100 µM (inactive)
[47]
  GI50: > 100 µM (inactive)
[48]
  GI50: > 100 µM (inactive)
[49]
  GI50: > 100 µM (inactive)
[50]
  GI50: > 100 µM (inactive)
[51]
  GI50: > 100 µM (inactive)
[52]
  GI50: > 100 µM (inactive)
